Where “and” joins values, the source holds several entries; their conditions need not be identical. Identical values can stand only once.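 96-well plates; 48 h exposure; 5 concentrations. Endpoints by linear interpolation between flanking doses. Not reached: highest tested concentration assigned. At the GI50, growth is halved. TGI is the concentration that stops growth completely.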
What was measured:
Experiment in all cases: growth of human tumour cells (NCI), 48 h
SW-620 colon = tested on: SW-620 colon
CAKI-1 renal = tested on: CAKI-1 renal
SF-268 CNS = tested on: SF-268 CNS
SN12C renal = tested on: SN12C renal
A498 renal = tested on: A498 renal
LOX IMVI melanoma = tested on: LOX IMVI melanoma
HS 578T breast = tested on: HS 578T breast
MDA-MB-435 = tested on: MDA-MB-435
HCT-15 colon = tested on: HCT-15 colon
M14 melanoma = tested on: M14 melanoma
SK-MEL-28 melanoma = tested on: SK-MEL-28 melanoma
HCC-2998 colon = tested on: HCC-2998 colon
SF-539 CNS = tested on: SF-539 CNS
TK-10 renal = tested on: TK-10 renal
A549 NSCLC = tested on: A549 NSCLC
NCI-H522 lung = tested on: NCI-H522 lung
U251 CNS = tested on: U251 CNS
HL-60(TB) leukemia = tested on: HL-60(TB) leukemia
PC-3 prostate = tested on: PC-3 prostate
OVCAR-5 ovarian = tested on: OVCAR-5 ovarian
SNB-75 CNS = tested on: SNB-75 CNS
T-47D breast = tested on: T-47D breast
SK-MEL-2 melanoma = tested on: SK-MEL-2 melanoma
DU-145 prostate = tested on: DU-145 prostate
MDA-N = tested on: MDA-N
OVCAR-4 ovarian = tested on: OVCAR-4 ovarian
SNB-19 CNS = tested on: SNB-19 CNS
SK-OV-3 ovarian = tested on: SK-OV-3 ovarian
MALME-3M melanoma = tested on: MALME-3M melanoma
SR leukemia = tested on: SR leukemia

SMILES: CC1(C)CCC2=C(O1)c1ccccc1C(=O)C2=O
- GI50 (SW-620 colon): 1860 nM
- TGI (SW-620 colon): 3930 nM and 1090 nM
- GI50 (CAKI-1 renal): 1740 nM
- TGI (CAKI-1 renal): 3130 nM and 2470 nM
- GI50 (SF-268 CNS): 1440 nM
- TGI (SF-268 CNS): 3320 nM and 1830 nM
- GI50 (SN12C renal): 855 nM
- TGI (SN12C renal): 2200 nM and 1040 nM
- TGI (A498 renal): 11.3 µM
- GI50 (LOX IMVI melanoma): 330 nM and 309 nM
- TGI (LOX IMVI melanoma): 1310 nM and 934 nM
- TGI (HS 578T breast): 6.32 µM and 0.643 µM
- GI50 (MDA-MB-435): 191 nM
- GI50 (HCT-15 colon): 739 nM and 537 nM
- TGI (HCT-15 colon): 2330 nM and 1790 nM
- GI50 (M14 melanoma): 1690 nM
- TGI (M14 melanoma): 3310 nM and 801 nM
- GI50 (SK-MEL-28 melanoma): 1880 nM and 406 nM
- TGI (SK-MEL-28 melanoma): 3390 nM and 1440 nM
- GI50 (HCC-2998 colon): 1760 nM
- TGI (HCC-2998 colon): 3.25 µM
- GI50 (SF-539 CNS): 1630 nM
- TGI (SF-539 CNS): 2990 nM and 918 nM
- GI50 (TK-10 renal): 1830 nM
- TGI (TK-10 renal): 3.34 µM and 4.56 µM
- GI50 (A549 NSCLC): 2150 nM
- TGI (A549 NSCLC): 5.14 µM and 1.73 µM
- GI50 (NCI-H522 lung): 1890 nM
- TGI (NCI-H522 lung): 4.79 µM and 1.52 µM
- GI50 (U251 CNS): 1490 nM
- TGI (U251 CNS): 2950 nM and 1130 nM
- GI50 (HL-60(TB) leukemia): 2830 nM
- TGI (HL-60(TB) leukemia): > 100 µM
- GI50 (PC-3 prostate): 1240 nM
- TGI (PC-3 prostate): 3.01 µM and 6.31 µM
- GI50 (OVCAR-5 ovarian): 1810 nM
- TGI (OVCAR-5 ovarian): 3330 nM and 1020 nM
- GI50 (SNB-75 CNS): 1640 nM
- TGI (SNB-75 CNS): 3010 nM and 1350 nM
- GI50 (T-47D breast): 1490 nM
- TGI (T-47D breast): 4.4 µM and 1.87 µM
- GI50 (SK-MEL-2 melanoma): 2050 nM
- TGI (SK-MEL-2 melanoma): 4.13 µM and 3.07 µM
- GI50 (DU-145 prostate): 1710 nM
- TGI (DU-145 prostate): 3080 nM and 1400 nM
- TGI (MDA-N): 363 nM
- GI50 (OVCAR-4 ovarian): 1270 nM
- TGI (OVCAR-4 ovarian): 2.53 µM and 5.78 µM
- GI50 (SNB-19 CNS): 1600 nM and 1710 nM
- TGI (SNB-19 CNS): 3.08 µM and 3.11 µM
- TGI (SK-OV-3 ovarian): 3.94 µM
- GI50 (MALME-3M melanoma): 1510 nM
- TGI (MALME-3M melanoma): 2840 nM and 974 nM
- GI50 (SR leukemia): 3.99 µM
- TGI (SR leukemia): > 100 µM
